Test results reported in PubChem BioAssay AID248 (DTP/NCI, 2004).
“And” between values parts separate entries of the source, which are not always exact repeats. Equal values may be shown once. Inconclusive results and toxic doses are left out. Peptide text beside a SMILES is read from it. * marks the point of attachment. Boc = CC(C)(C)OC(=O)*

System: L1210 leukemia ip in BDF1 mice, survival T/C
Assay: NCI In Vivo Anticancer Drug Screen. Data for tumor model L1210 Leukemia (intraperitoneal) in B6D2F1 (BDF1) mice
Details: endpoint: mean survival time, higher = longer survival
Method in brief: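 Ratio derived from survival: compound-dosed mice over vehicle-dosed mice, all bearing a transplantable tumor.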

[1] = dose: 100.0 mg/kg/injection, schedule: Q01DX009 (ip), vehicle: Klucel (hydroxypropylcellulose) (HPC)
[2] = dose: 100.0 mg/kg/injection, schedule: Q04DX003 (ip), vehicle: Klucel (hydroxypropylcellulose) (HPC)
[3] = dose: 200.0 mg/kg/injection, schedule: Q01DX009 (ip), vehicle: Klucel (hydroxypropylcellulose) (HPC)
[4] = dose: 200.0 mg/kg/injection, schedule: Q04DX003 (ip), vehicle: Klucel (hydroxypropylcellulose) (HPC)
[5] = dose: 400.0 mg/kg/injection, schedule: Q01DX009 (ip), vehicle: Klucel (hydroxypropylcellulose) (HPC)
[6] = dose: 400.0 mg/kg/injection, schedule: Q04DX003 (ip), vehicle: Klucel (hydroxypropylcellulose) (HPC)
[7] = dose: 100.0 mg/kg/injection, schedule: Q01DX009 (ip), vehicle: saline with Tween-80
[8] = dose: 200.0 mg/kg/injection, schedule: Q01DX009 (ip), vehicle: saline with Tween-80
[9] = dose: 400.0 mg/kg/injection, schedule: Q01DX009 (ip), vehicle: saline with Tween-80
[10] = dose: 100.0 mg/kg/injection, schedule: Q01DX009 (ip), vehicle: saline
[11] = dose: 200.0 mg/kg/injection, schedule: Q01DX009 (ip), vehicle: saline
[12] = dose: 100.0 mg/kg/injection, schedule: Q01DX001 (ip), vehicle: carboxymethylcellulose (CMC)
[13] = dose: 200.0 mg/kg/injection, schedule: Q01DX001 (ip), vehicle: carboxymethylcellulose (CMC)
[14] = dose: 400.0 mg/kg/injection, schedule: Q01DX001 (ip), vehicle: carboxymethylcellulose (CMC)
[15] = dose: 100.0 mg/kg/injection, schedule: Q04DX002 (ip), vehicle: Klucel (hydroxypropylcellulose) (HPC)
[16] = dose: 200.0 mg/kg/injection, schedule: Q04DX002 (ip), vehicle: Klucel (hydroxypropylcellulose) (HPC)
[17] = dose: 400.0 mg/kg/injection, schedule: Q04DX002 (ip), vehicle: Klucel (hydroxypropylcellulose) (HPC)
[18] = dose: 100.0 mg/kg/injection, schedule: Q01DX001 (ip), vehicle: Klucel (hydroxypropylcellulose) (HPC)
[19] = dose: 100.0 mg/kg/injection, schedule: Q01DX001 (ip), vehicle: saline
[20] = dose: 200.0 mg/kg/injection, schedule: Q01DX001 (ip), vehicle: saline
[21] = dose: 400.0 mg/kg/injection, schedule: Q01DX001 (ip), vehicle: saline
[22] = dose: 50.0 mg/kg/injection, schedule: Q01DX001 (ip), vehicle: carboxymethylcellulose (CMC)
[23] = dose: 100.0 mg/kg/injection, schedule: Q04DX003 (ip), vehicle: saline with Tween-80
[24] = dose: 200.0 mg/kg/injection, schedule: Q04DX003 (ip), vehicle: saline with Tween-80

For CC(C)N1CSC(=S)N(Cc2ccccc2)C1, the T/C (dose: 50.0 mg/kg/injection, schedule: Q01DX009 (ip), vehicle: Klucel (hydroxypropylcellulose) (HPC)) was 108 % of control, the T/C [1] was 92 % of control and the T/C [2] was 98 % of control. The T/C [3] was 91 % of control, the T/C [4] was 95 % of control and the T/C [5] was 94 % of control. For the same compound, the T/C [6] was 90 % of control.
O=C1NC(=O)C(O)(C2(O)C(=O)NC(=O)NC2=O)C(=O)N1 was tested, and the T/C (dose: 75.0 mg/kg/injection, schedule: Q01DX001 (ip), vehicle: carboxymethylcellulose (CMC)) was 101 % of control, the T/C [7] was 106 % of control and the T/C (dose: 150.0 mg/kg/injection, schedule: Q01DX001 (ip), vehicle: carboxymethylcellulose (CMC)) was 102 % of control. The T/C [8] was 92 % of control and the T/C [9] was 88 % of control.
With C/C=C/C=C(\CC)C(=O)OCC the T/C (dose: 50.0 mg/kg/injection, schedule: Q01DX009 (ip), vehicle: saline) was 115 % of control, the T/C [7] was 98 % of control and the T/C [10] was 99 % of control. The T/C [8] was 90 % of control, the T/C [11] was 96 % of control and the T/C [9] was 101 % of control.
In the case of CCOC(=O)C1CSC(C)(C(=O)OCC)N1 (stereo not given), the T/C [12] is reported as 100 % of control, the T/C [13] is reported as 96 % of control and the T/C [14] is reported as 105 % of control.
For C1=C(c2ccccc2)N(Cc2ccccc2)C(c2ccccc2)=CN1Cc1ccccc1, the T/C (dose: 50.0 mg/kg/injection, schedule: Q04DX002 (ip), vehicle: saline with Tween-80) was 105 % of control, the T/C [15] was 107 % of control and the T/C (dose: 100.0 mg/kg/injection, schedule: Q04DX002 (ip), vehicle: saline with Tween-80) was 96 % of control. For the same compound, the T/C [16] was 96 % of control, the T/C (dose: 200.0 mg/kg/injection, schedule: Q04DX002 (ip), vehicle: saline with Tween-80) was 96 % of control and the T/C [17] was 111 % of control.
In the case of COc1ccc(OC)c(CCc2cc(OC)ccc2OC)c1, the T/C (dose: 12.5 mg/kg/injection, schedule: Q01DX009 (ip), vehicle: other) is reported as 93 % of control, the T/C (dose: 25.0 mg/kg/injection, schedule: Q01DX009 (ip), vehicle: other) is reported as 96 % of control and the T/C (dose: 50.0 mg/kg/injection, schedule: Q01DX009 (ip), vehicle: other) is reported as 98 % of control.
COC(=O)CNC(=O)C1CCCN1C(=O)C(Cc1c[nH]c2ccccc12)NC(=O)OC(C)(C)C (stereo not drawn) (Boc-Trp-Pro-Gly-OMe; configuration not given here) was tested, and the T/C [7] was 88 % of control, the T/C [8] was 100 % of control and the T/C [9] was 100 % of control.
In the case of C#CCOCCCC(=O)O, the T/C [10] is reported as 91 % of control and the T/C [11] is reported as 89 % of control.
With Cc1ccc(C(C)C)c(O)c1C(=O)O the T/C [18] was 96 % of control and the T/C (dose: 200.0 mg/kg/injection, schedule: Q01DX001 (ip), vehicle: Klucel (hydroxypropylcellulose) (HPC)) was 104 % of control.
O=S(=O)(O)c1ccc(-c2nc3ccccc3[nH]2)cc1 was tested, and the T/C (dose: 50.0 mg/kg/injection, schedule: Q01DX001 (ip), vehicle: saline) was 104 % of control, the T/C [19] was 98 % of control and the T/C [1] was 101 % of control. The T/C [2] was 95 % of control, the T/C [20] was 93 % of control and the T/C [3] was 96 % of control. For the same compound, the T/C [4] was 103 % of control, the T/C [21] was 95 % of control and the T/C [5] was 96 % of control. The T/C [6] was 98 % of control.
In the case of Cc1cc(C)c(S(=O)(=O)Nc2cc([N+](=O)[O-])ccc2C)c(C)c1, the T/C [1] is reported as 97 % of control, the T/C [3] is reported as 92 % of control and the T/C [5] is reported as 92 % of control.
With COc1ccc(Nc2ccnc3cc(Cl)ccc23)cc1CN(CCCl)C(C)CCl (stereo not given) the T/C (dose: 25.0 mg/kg/injection, schedule: Q01DX001 (ip), vehicle: carboxymethylcellulose (CMC)) was 113 % of control, the T/C [22] was 107 % of control and the T/C [12] was 103 % of control.
With CCCCCC1CCC(C(=O)O)CC1 (stereo not given) the T/C [23] was 88 % of control and the T/C [24] was 93 % of control.
Cc1cc2[nH]c(=O)c(=O)[nH]c2cc1C was tested, and the T/C (dose: 50.0 mg/kg/injection, schedule: Q04DX003 (ip), vehicle: Klucel (hydroxypropylcellulose) (HPC)) was 104 % of control, the T/C [1] was 105 % of control and the T/C [2] was 94 % of control. For the same compound, the T/C [3] was 100 % of control and the T/C [4] was 100 % of control.
For O=NN(CCCl)C(=O)NC1Cc2ccccc2C1, the T/C (dose: 8.0 mg/kg/injection, schedule: Q01DX001 (ip), vehicle: other) was 109 % of control, the T/C (dose: 62.0 mg/kg/injection, schedule: Q01DX001 (ip), vehicle: other) was 239 % of control and the T/C (dose: 125.0 mg/kg/injection, schedule: Q01DX001 (ip), vehicle: other) was 264 % of control. The T/C (dose: 250.0 mg/kg/injection, schedule: Q01DX001 (ip), vehicle: other) was 112 % of control and the T/C (dose: 500.0 mg/kg/injection, schedule: Q01DX001 (ip), vehicle: other) was 86 % of control.
In the case of COc1cc(Cl)ccc1NC(=O)Oc1cccc(NC(C)=O)c1, the T/C [1] is reported as 100 % of control, the T/C [3] is reported as 89 % of control and the T/C [5] is reported as 100 % of control.
For Cn1cnc2cc(N=Cc3ccc(N(CCCl)CCCl)cc3Cl)ccc21, the T/C [15] was 108 % of control, the T/C [16] was 101 % of control and the T/C [17] was 101 % of control.
Cc1cc(N=C2C=C(Br)C(=O)C(Br)=C2)cc(CN(CC(=O)O)CC(=O)O)c1O was tested, and the T/C [19] was 105 % of control, the T/C [20] was 111 % of control and the T/C [21] was 100 % of control.
N#CC(=C1C=CC(=NO)C=C1)c1ccc(Cl)cc1 was tested, and the T/C [7] was 97 % of control, the T/C [23] was 96 % of control and the T/C [8] was 100 % of control. The T/C [24] was 107 % of control, the T/C [9] was 103 % of control and the T/C (dose: 400.0 mg/kg/injection, schedule: Q04DX003 (ip), vehicle: saline with Tween-80) was 91 % of control.
With O=P(O)(Oc1ccccc1)c1ccccc1 the T/C [19] was 107 % of control, the T/C [20] was 105 % of control and the T/C [21] was 100 % of control.
For O=C(N/N=C\c1ccc(N(CCCl)CCCl)cc1)c1ccccn1, the T/C [22] was 108 % of control, the T/C [12] was 108 % of control and the T/C [13] was 103 % of control. The T/C [14] was 100 % of control.
For NNC(=O)CNc1ccc(F)c(F)c1, the T/C [15] was 104 % of control and the T/C [16] was 108 % of control.
For Clc1ccc(Nc2cc[n+]3ccccc3c2)cc1Cl, the T/C (dose: 25.0 mg/kg/injection, schedule: Q01DX001 (ip), vehicle: Klucel (hydroxypropylcellulose) (HPC)) was 98 % of control, the T/C (dose: 50.0 mg/kg/injection, schedule: Q01DX001 (ip), vehicle: Klucel (hydroxypropylcellulose) (HPC)) was 96 % of control and the T/C [18] was 102 % of control and 117 % of control.
In the case of CC(=O)c1cc(C)c(C)c(C)c1, the T/C [19] is reported as 96 % of control, the T/C [20] is reported as 96 % of control and the T/C [21] is reported as 91 % of control.
